Experimental findings from US12144795B2, “Cannabidiol compositions having modified cannabinoid profiles” (priority 2018, dated 2024) are described below.

SMILES strings stand for the structures.

Data set [1] is described as follows: HPLC method quantifying low levels of D9-THC in stored cannabidiol samples. In kind it is physicochemical. How it is done:
An analytical method using HPLC was developed to determine low levels of delta-9-tetrahydrocannabinol in cannabidiol samples. A Waters XBridge C18 3.5 μm, 3.0×150 mm column was employed and operated at a temperature of 30° C., UV wavelength of 225 nm, and injection size of 20 μL. Mobile Phase A was 0.02% (v/v) acetic acid in H2O, while mobile phase B was 0.02% (v/v) acetic acid in acetonitrile (ACN).
An aliquot of 0.5 mL of a D9-THC reference standard (Cerilliant, 1.0 mg/mL MeOH solution) was diluted in a 500-mL volumetric flask using sample diluent (70/30 Acetonitrile/H2O, v/v). The D9-THC concentration was 0.001 mg/mL in the standard stock solution, which corresponded with 200 ppm of D9-THC as compared to the CBD sample solution (nominal CBD concentration was 5.0 mg/mL).
An Aliquot of 5 mL of THC Stock Standard Solution was diluted in a 100-mL volumetric flask using the sample diluent. The D9-THC concentration was 0.00005 mg/mL in the working standard solution, corresponding with 10 ppm of D9-THC as compared to the CBD sample solution.
About 50 mg of cannabidiol sample was weighed into a 10-mL volumetric flask. The volumetric flask was diluted to volume using sample diluent and mixed well.
A minimum of 6 working standard solutions were injected prior to the sample set. Furthermore, a maximum of 6 injections of CBD sample were injected between bracketing working standard solutions.
The amount of THC in each sample was calculated using the following
For reference, each chromatogram in FIG. 6A through FIG. 6F is shown against a 10 ppm THC working standard. For samples 1, 2, and 3, roughly 50.28 mg, 50.77 mg, and 55.60 mg material was used.

Data set [2] can be described thus: Particle size distribution (Mastersizer 2000 laser diffraction, Morphologi G3). In kind it is physicochemical. From the text:
A Mastersizer 2000 was used to analyze the particle size distribution in cannabidiol samples. This method involved laser diffraction to measure the particle size distribution by the volume standard. Roughly 1 g of each sample was weighed and transferred along the middle of the sample tray. The sample feed gates were 6 mm-8 mm. The instrument software parameters were set to a dispersive air pressure of 3 bar, vibration feed rate of 60%, refractive index of 1.5295, absorption index of 0.01, and size range from 0.020 μm to 2000.000 μm. FIG. 8A-FIG. 8R show the result analysis report for each sample measured as well as their respective particle size distribution graph. Malvern Pananalytical's Morphologi G3 Analyzer was used in another series of experiments to examine sample volume size distribution.

The mark [3] stands for this setting: after storage at −16° C. for two years.
Where [4] appears, read: after stored for 23 days at 55-60° C.

As for `C=C(C)[C@@H]1CCC(C)=C[C@H]1c1c(O)cc(CCCCC)cc1O` [Sample 3, Cannabidiol], in data set [1] (after storage for one month at room temperature (25° C.)), the “Result (D9-THC in ppm)” value came to 5.1 ppm.
In the case of `C=C(C)[C@@H]1CCC(C)=C[C@H]1c1c(O)cc(CCCCC)cc1O` [Sample 5, Cannabidiol], the “Result (D9-THC in ppm)” value in data set [1] (setting [3]) is 21.7 ppm.
On the same count and under the same terms, under `C=C(C)[C@@H]1CCC(C)=C[C@H]1c1c(O)cc(CCCCC)cc1O` [Sample 4, Cannabidiol] stands 8.3 ppm.
Regarding `C=C(C)[C@@H]1CCC(C)=C[C@H]1c1c(O)cc(CCCCC)cc1O` [Sample 6, Cannabidiol], the “Result (D9-THC in ppm)” value in data set [1] (setting [3]) came out at 7.3 ppm.
Regarding `C=C(C)[C@@H]1CCC(C)=C[C@H]1c1c(O)cc(CCCCC)cc1O` [Sample 1, Cannabidiol], the “Result (D9-THC in ppm)” value in data set [1] (setting [4]) was 1.9 ppm. In data set [2], the “Malvern 2K (dry dispersion) D10” value was “D10: 7.8 um”, the “Malvern 2K (dry dispersion) D50” value was “D50: 21.8 um” and the “Malvern 2K (dry dispersion) D90” value was “D90: 152.9 um”.
Taken in the same sequence, the figures for `C=C(C)[C@@H]1CCC(C)=C[C@H]1c1c(O)cc(CCCCC)cc1O` [Sample 2, Cannabidiol] were 5.9 ppm, “D10: 8.0 um”, “D50: 23.9 um” and “D90: 157.5 um”.
